Entries after “also recorded” stand apart in the source; their conditions may differ.
Experiment: Toxicity evaluation (body weight, food consumption, clinical observation, histopathology) in guinea pig
Type: in vivo
Text: The purpose of this nonGLP study was to evaluate the effect of various concentrations of SADBE delivered via dermal patch, for dose site irritation and toxicity endpoints such as body weights, group food consumption, clinical observation, pre-termination clinical pathology, gross and histopathology.
Thirty (30) guinea pigs (15 female and 15 male) were utilized for this nonGLP study. Prior to and post dosing (dermal patches loaded with 20 microliters of 2, 6, or 18% SADBE drug solution) body weights, group food consumption, and Draize scoring for erythema, eschar formation, and edema at the dose site were be recorded. The dermal patch loaded with SADBE was applied to animals, and left in place for ˜12 hours plus/minus 1 hour. Following the ˜12 hour dosing period, patch sites was assessed by Draize scoring. […] After the 28 days assessment period, re challenge was performed, a second patch (not treated during the induction phase) was applied and assessed by Draize scoring.
At the end of the survival period, blood was collected for standard hematology and serum chemistry analysis, and the animals humanely euthanized. The second dose site and cervical lymph nodes were collected at necropsy for further histopathological evaluation. Dose site was explanted, fixed, and embedded. Dose sites were examined histologically and an evaluation of cell type presence and tissue response conducted.

[1] = any dose tested (2%, 6%, 18% SADBE patch)
[2] = female, Group 1, 2% SADBE patch
[3] = female, Group 3, 18% SADBE patch

## CCCCOc1c(OCCCC)c(=O)c1=O [SADBE, squaric acid dibutyl ester]
All SADBE treated groups (summary)
  lymph node sections: within normal limits
All doses
  clinical monitoring observations: did not reveal any significant abnormalities
  histopathology observed at all SADBE treated sites (summary): mild to moderate parakeratosis, minimal multifocal necrosis and fatty infiltration
All doses, post-dosing and daily throughout study
  systemic toxicity: no signs of systemic toxicity
[1]
  effect on body weight: no significant effect; also recorded: not affected
  effect on food consumption: no significant effect; also recorded: not affected
[2]
  histopathology of treated skin sites: inflammatory infiltrates in the dermis: multifocal rare to mild infiltrates of inflammatory cells
  histopathology of treated skin sites: necrosis, neovascularization, fibrosis, fatty infiltration: Necrosis, neovascularization, fibrosis and fatty infiltration were not noted
female, Group 2, 6% SADBE patch
  histopathology of treated skin sites: inflammatory infiltrates in the dermis: multifocal rare to mild infiltrates of inflammatory cells
female, Group 2, 6% SADBE patch, narrow fibrous band in three animals
  histopathology of treated skin sites: necrosis, neovascularization, fatty infiltration: Necrosis, neovascularization and fatty infiltration were not noted
[3]
  histopathology of treated skin sites: inflammatory infiltrates in the dermis: multifocal rare to mild infiltrates of inflammatory cells
  histopathology of treated skin sites: necrosis, neovascularization: Minimal multifocal necrosis and neovascularization was noted
male, Group 1, 2% SADBE patch
  histopathology of treated skin sites: inflammatory infiltrates in the dermis: multifocal rare infiltrates of inflammatory cells
  histopathology of treated skin sites: necrosis, neovascularization, fibrosis, fatty infiltration: Necrosis, neovascularization, fibrosis and fatty infiltration were not noted
male, Group 2, 6% SADBE patch
  histopathology of treated skin sites: inflammatory infiltrates in the dermis: multifocal rare to mild infiltrates of inflammatory cells
  histopathology of treated skin sites: necrosis, neovascularization, fibrosis, fatty infiltration: Necrosis, neovascularization, fibrosis and fatty infiltration were not noted
male, Group 3, 18% SADBE patch
  histopathology of treated skin sites: inflammatory infiltrates in the dermis: multifocal rare to heavy infiltrates of inflammatory cells
  histopathology of treated skin sites: necrosis, neovascularization: Minimal, multofocal necrosis and mild multifocal neovascularization was noted

Source: patent US20210393932A1, “DERMAL PATCHES AND GLASS SWABS FOR APPLICATION OF TOPICAL IMMUNOSENSITIZERS” (Squarex, LLC, priority 2020, published 2021)
